Experimental findings from patent US20230406865A1, “CRYSTAL FORM OF FREE BASE OF INHIBITOR CONTAINING BICYCLIC RING DERIVATIVE AND PREPARATION METHOD AND APPLICATION OF CRYSTAL FORM” (SHANGHAI HANSOH BIOMEDICAL CO., LTD., priority 2020, published 2023) are described below.

One series concerns the target T1, Ba/F3 KIF5B-RET cells (Homo sapiens, UniProt P07949).
T1 construct: fused on or other part: P33176 (Kinesin-1 heavy chain)
Description: Inhibition of proliferation of Ba/F3 KIF5B-RET cells (CellTiter-Glo). The class given is cell-based. Conditions: 72 to 144 hours. How it is done:
When Ba/F3 KIF5B-RET cells were cultured to the appropriate cell density, cells were collected, and the cells were adjusted to the appropriate cell concentration using complete medium, and the cell suspension was spread in a 96-well plate, 90 μL per well, and placed in the wall of a 37° C., 5% CO2 incubator overnight; compound solutions of different concentrations were prepared using DMSO and culture medium; a solvent control was set, and the compound solution was added to a 96-well plate with […] at 37° C. in a 5% CO2 incubator for 72 to 144 hours, CellTiter-Glo solution was added thereto and mixed well by shaking, incubated for 10 minutes in the dark, and read by BioTek Synergy H1 microplate reader.
The IC50 values were obtained by using the luminescence signal values to calculate the inhibition rate, the concentrations and the inhibition rates were fitted to a nonlinear regression curve using Graphpad Prism software.
On the technique in general: Cellular ATP, detected with luciferase, serves as a proxy for viable cell number.

A short description of series [1]: Balb/C mouse pharmacokinetics, oral 5 mg/kg. The class given is in vivo, Balb/C mice. Conditions: male, p.o. 5 mg/kg, plasma. How it is done: The pharmacokinetic behavior of the following compound embodiments, administered orally at a dose of 5 mg/kg in plasma in mice, was studied using Balb/C mice as test animals.
Balb/C Mouse 6/embodiment, male, Shanghai Jiesijie Laboratory Animal Co., Ltd, Animal Production License No. (SCXK (Shanghai) 2013-0006 N0.311620400001794).
Balb/C mice, males; p.o. after overnight fasting, respectively, at a dose of 5 mg/kg, administered in a volume of 10 mL/kg.
0.5% CMC-Na (1% Tween80) was dissolved by ultrasound, and prepared into clear solution or uniform suspension.
Before and after administration, 0.1 mL of blood was collected from mice at 0, 0.5, 1, 2, 4, 6, 8 and 24 hours by orbital collection, placed in EDTA-K2 tubes, centrifuged at 6000 rpm at 4° C. for 6 minutes to separate plasma, and stored at −80° C.
2.5 Sample Handling: • 1) 40 μL of plasma sample was precipitated by adding 160 μL of acetonitrile, mixed and centrifuged at 3500×g for 5-20 minutes. • 2) 100 μL of the supernatant solution after treatment was taken to analyze the concentration of the test compound by LC/MS/MS.
2.6 Liquid Phase Analysis • Liquid phase conditions: Shimadzu LC-20AD pump • Mass spectrometry conditions: AB Sciex API 4000 mass spectrometer • Chromatographic column: phenomenex Gemiu 5 μM C18 50×4.6 mm • Mobile phase: Liquid A was 0.1% formic acid aqueous solution, liquid B was acetonitrile • Flow rate: 0.8 mL/min • Elution time: 0-4.0 minutes, the eluent was as follows:
The main pharmacokinetic parameters were calculated by WinNonlin 6.1 and the results of the mouse pharmacokinetic experiments were shown in Table 13 below.

Series [2] relates to TT cells (MTC, RET C634W). As to the kind of experiment: Inhibition of proliferation of TT cells (CellTiter-Glo, 72 h). The class given is cell-based. Conditions: Homo sapiens. How it is done:
TT cells were purchased from the cell bank of the Chinese Academy of Sciences.
When TT cells were cultured to the appropriate fusion level, TT cells were collected, and the cells were adjusted to the appropriate cell concentration using complete medium, and the cell suspension was spread in a 96-well plate, 90 μL per well, and placed to the wall of a 37° C., 5% CO2 incubator overnight; and compound solutions of different concentrations were prepared using DMSO and culture medium; and a solvent control was set, the compound solution was added to a 96-well plate, 10 μL per well, and placed to the wall of a 37° C., 5% CO2 incubator for 72 hours; CellTiter-Glo solution was added thereto and the mixture was mixed well by shaking, incubated for 10 minutes in the dark, and read by BioTek Synergy H1 microplate reader.
The IC50 values were obtained by using luminescence signal values to calculate the inhibition rate, the concentration and the inhibition rate were fitted to a nonlinear regression curve using Graphpad Prism software.

Another series concerns the target T2, KDR kinase (Homo sapiens, UniProt P35968).
T2 construct: purchased Carna 08-191
As to the kind of experiment: HTRF kinase activity inhibition, KDR. The class given is biochemical. Conditions: for IC50: HTRF, ATP at Km; for Ratio (KDR/RET): KDR IC50 / RET IC50. The essentials:
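Inhibition of KDR kinase activity measured by homogeneous time-resolved fluorescence with a tyrosine-kinase KinEASE substrate kit and ATP.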

The target of another series is T3, RET kinase (Homo sapiens, UniProt P07949).
T3 construct: purchased Carna 08-159
As to the kind of experiment: HTRF kinase activity inhibition, RET wild-type. Format: biochemical. Conditions: ATP at Km. The essentials:
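HTRF (KinEASE-TK) kinase assay with recombinant RET wild-type, RET V804M, RET V804L and KIF5B-RET enzymes plus ATP.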
On the technique in general: TR-FRET usually uses a lanthanide donor and a delayed reading to cut background.

By IC50 is commonly meant the midpoint of a concentration-inhibition curve. As a reminder, the MRT is a mean duration of stay, worked out from the concentration-time curve. The Tmax is the time from dosing to the highest level.

T3 sequence (P07949 29-1114): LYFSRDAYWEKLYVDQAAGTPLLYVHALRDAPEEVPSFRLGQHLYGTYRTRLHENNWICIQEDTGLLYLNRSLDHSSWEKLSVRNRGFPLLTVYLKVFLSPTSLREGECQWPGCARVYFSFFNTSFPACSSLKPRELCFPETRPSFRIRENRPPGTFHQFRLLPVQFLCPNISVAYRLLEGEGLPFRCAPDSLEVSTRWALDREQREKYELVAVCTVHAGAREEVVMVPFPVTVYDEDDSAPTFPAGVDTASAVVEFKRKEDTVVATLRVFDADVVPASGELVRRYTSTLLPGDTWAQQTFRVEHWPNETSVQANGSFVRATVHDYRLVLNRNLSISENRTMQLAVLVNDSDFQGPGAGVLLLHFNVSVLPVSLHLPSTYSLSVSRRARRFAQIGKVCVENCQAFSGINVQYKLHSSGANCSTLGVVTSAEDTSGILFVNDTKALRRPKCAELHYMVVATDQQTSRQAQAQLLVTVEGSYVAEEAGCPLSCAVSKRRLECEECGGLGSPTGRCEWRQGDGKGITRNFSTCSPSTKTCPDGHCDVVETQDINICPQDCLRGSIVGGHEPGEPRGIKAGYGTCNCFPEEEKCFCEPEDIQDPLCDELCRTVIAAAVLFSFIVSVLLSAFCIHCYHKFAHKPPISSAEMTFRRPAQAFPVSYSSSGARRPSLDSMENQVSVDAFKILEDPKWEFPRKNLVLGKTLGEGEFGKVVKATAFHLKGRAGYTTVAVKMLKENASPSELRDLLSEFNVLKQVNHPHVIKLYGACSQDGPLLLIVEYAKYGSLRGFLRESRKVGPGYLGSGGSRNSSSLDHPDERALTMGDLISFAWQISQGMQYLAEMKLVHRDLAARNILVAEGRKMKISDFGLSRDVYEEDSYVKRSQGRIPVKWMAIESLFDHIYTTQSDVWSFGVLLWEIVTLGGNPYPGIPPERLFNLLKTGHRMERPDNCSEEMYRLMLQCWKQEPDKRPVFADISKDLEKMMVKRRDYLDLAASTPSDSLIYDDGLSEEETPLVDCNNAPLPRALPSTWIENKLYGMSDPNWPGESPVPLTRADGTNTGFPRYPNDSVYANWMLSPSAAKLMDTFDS
T2 sequence (P35968 20-1356): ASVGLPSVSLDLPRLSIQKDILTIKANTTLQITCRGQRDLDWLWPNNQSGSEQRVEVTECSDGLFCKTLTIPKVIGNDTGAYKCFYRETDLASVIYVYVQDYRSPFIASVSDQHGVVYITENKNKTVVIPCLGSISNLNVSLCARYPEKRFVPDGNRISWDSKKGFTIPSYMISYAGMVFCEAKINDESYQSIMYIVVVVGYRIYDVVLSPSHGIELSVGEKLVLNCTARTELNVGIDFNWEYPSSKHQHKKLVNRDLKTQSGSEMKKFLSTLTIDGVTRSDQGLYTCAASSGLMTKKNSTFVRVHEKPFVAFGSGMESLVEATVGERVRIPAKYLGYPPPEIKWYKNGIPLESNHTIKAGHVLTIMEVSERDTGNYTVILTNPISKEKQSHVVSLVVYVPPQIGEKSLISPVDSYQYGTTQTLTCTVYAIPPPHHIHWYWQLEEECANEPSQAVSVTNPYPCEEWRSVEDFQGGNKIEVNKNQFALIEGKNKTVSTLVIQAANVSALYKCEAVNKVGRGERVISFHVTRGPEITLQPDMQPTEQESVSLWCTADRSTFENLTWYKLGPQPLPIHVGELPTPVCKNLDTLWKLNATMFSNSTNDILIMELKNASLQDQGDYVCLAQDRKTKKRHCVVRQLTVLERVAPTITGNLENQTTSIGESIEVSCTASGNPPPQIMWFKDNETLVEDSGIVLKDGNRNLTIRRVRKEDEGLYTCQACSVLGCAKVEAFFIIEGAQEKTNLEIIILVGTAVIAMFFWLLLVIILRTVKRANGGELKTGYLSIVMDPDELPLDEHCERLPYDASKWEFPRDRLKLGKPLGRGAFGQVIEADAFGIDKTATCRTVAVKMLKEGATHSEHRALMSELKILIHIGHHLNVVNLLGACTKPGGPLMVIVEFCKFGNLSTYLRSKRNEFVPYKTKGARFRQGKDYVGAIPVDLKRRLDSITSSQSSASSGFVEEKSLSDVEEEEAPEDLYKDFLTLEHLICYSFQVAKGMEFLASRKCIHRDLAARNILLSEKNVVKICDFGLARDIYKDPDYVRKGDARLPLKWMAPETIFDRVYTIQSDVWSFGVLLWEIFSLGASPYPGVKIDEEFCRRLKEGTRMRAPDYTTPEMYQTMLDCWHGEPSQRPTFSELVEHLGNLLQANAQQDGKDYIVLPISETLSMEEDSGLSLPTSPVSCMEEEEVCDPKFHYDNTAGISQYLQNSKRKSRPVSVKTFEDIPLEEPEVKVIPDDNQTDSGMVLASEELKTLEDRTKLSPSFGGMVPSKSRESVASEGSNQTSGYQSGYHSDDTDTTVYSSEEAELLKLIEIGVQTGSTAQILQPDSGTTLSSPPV
T1 sequence (P07949 whole entry, change not shown, the tested form may be a part): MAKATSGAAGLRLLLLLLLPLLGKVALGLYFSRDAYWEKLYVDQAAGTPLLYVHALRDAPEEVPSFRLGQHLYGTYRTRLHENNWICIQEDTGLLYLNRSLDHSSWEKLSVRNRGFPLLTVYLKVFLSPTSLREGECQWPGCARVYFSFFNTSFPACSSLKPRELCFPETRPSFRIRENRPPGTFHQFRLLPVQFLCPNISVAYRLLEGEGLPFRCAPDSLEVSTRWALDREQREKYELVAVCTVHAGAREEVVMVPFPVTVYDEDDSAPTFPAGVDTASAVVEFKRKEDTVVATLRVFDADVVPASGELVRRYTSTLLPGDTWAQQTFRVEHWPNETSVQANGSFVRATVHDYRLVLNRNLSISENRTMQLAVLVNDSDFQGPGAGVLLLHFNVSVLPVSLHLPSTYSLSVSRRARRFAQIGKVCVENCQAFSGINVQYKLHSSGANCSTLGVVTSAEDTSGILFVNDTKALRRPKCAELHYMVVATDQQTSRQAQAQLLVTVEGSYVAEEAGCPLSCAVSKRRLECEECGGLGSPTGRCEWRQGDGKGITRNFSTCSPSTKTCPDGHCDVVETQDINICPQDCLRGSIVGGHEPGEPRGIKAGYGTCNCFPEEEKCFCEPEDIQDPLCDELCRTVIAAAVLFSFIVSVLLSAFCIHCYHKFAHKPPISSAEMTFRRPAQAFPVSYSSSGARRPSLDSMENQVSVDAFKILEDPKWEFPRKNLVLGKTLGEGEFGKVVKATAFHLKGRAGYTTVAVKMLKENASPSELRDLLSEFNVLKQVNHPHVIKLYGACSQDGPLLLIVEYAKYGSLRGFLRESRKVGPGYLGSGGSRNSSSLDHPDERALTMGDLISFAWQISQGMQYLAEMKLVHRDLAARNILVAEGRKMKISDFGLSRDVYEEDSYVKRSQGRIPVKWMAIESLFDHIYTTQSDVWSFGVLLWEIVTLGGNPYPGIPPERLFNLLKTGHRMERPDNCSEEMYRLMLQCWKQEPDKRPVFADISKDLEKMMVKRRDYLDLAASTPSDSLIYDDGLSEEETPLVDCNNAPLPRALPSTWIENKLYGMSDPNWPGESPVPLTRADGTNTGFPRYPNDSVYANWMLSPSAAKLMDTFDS

On to `COc1ccc(CN2C3CC2CN(c2ccc(-c4cc(OC[C@H]5C[C@@](C)(O)C5)cn5ncc(C#N)c45)cn2)C3)cn1` [Embodiment 44, 6-((Cis-3-hydroxy-3-methylcyclobutyl)methoxy)-4-(6-(6-((6-methoxypyridin-3-yl)methyl)-3,6-diazabicyclo[3.1.1]heptan-3-yl)pyridin-3-yl)pyrazolo[1,5-a]pyridine-3-carbonitrile], for which the IC50 at Ba/F3 KIF5B-RET cells was determined as 15.3 nM; in series [2], 12.2 nM. Also, in series [1] (read-out: Average residence time MRT), the MRT was found to be 5.22 h. For the same compound, the Cmax in series [1] (read-out: Blood concentration Cmax) is 1620 ng/mL. For the same compound, the AUC(0-t) in series [1] (read-out: Curve area AUC0-t) worked out at 14000 ng·h/mL. Moreover, the AUC(0-inf) in series [1] (read-out: Curve area AUC0-∞) turned out to be 14000 ng·h/mL. Moreover, the half-life in series [1] (read-out: Half-life t1/2 (converted)) was 3.45 h. The Tmax in series [1] (read-out: Peak time tmax) came to 0.5 h.

Regarding `CNC(=O)C12CC(COc3cc(-c4ccc(N5CC6CC(C5)N6Cc5ccc(OC)nc5)nc4)c4c(C#N)cnn4c3)(C1)C2` [Embodiment 67, 3-(((3-Cyano-4-(6-(6-((6-methoxypyridin-3-yl)methyl)-3,6-diazabicyclo[3.1.1]heptan-3-yl)pyridin-3-yl)pyrazolo[1,5-a]pyridin-6-yl)oxy)methyl)-N-methylbicyclo[1.1.1]pentane-1-carboxamide], the IC50 was determined as 5.33 nM on Ba/F3 KIF5B-RET cells, 6.84 nM in series [2], 4 nM against KDR kinase and 0.25 nM against RET kinase. Besides, the “Ratio (KDR/RET)” value on KDR kinase amounted to 16.

Turning to `COc1ccc(CN2C3CC2CN(c2ccc(-c4cc(OCC56CC(C#N)(C5)C6)cn5ncc(C#N)c45)cn2)C3)cn1` [Embodiment 53, 6-((3-Cyanobicyclo[1.1.1]pentan-1-yl)methoxy)-4-(6-(6-((6-methoxypyridin-3-yl)methyl)-3,6-diazabicyclo[3.1.1]heptan-3-yl)pyridin-3-yl)pyrazolo[1,5-a]pyridine-3-carbonitrile], the half-maximal inhibitory concentration (IC50) at Ba/F3 KIF5B-RET cells worked out at 30.6 nM; in series [2] it was 24.7 nM; on KDR kinase it was 21.6 nM; at RET kinase, 0.8 nM. Also, on KDR kinase, the “Ratio (KDR/RET)” value was determined as 27.

Consider `COc1ncc(CN2C3CC2CN(c2ccc(-c4cc(N5CC(C)(C#N)C5)cn5ncc(C#N)c45)cn2)C3)cc1F` [Embodiment 76, 6-(3-Cyano-3-methylazetidin-1-yl)-4-(6-(6-((5-fluoro-6-methoxypyridin-3-yl)methyl)-3,6-diazabicyclo[3.1.1]heptan-3-yl)pyridin-3-yl)pyrazolo[1,5-a]pyridine-3-carbonitrile], for which the IC50 on Ba/F3 KIF5B-RET cells was 6.04 nM; in series [2], 3.48 nM.

As to `COc1ccc(CN2C3CC2CN(c2ccc(-c4cc(C#CC5(O)COC5)cn5ncc(C#N)c45)cn2)C3)cn1` [Embodiment 80, 6-((3-Hydroxyoxetan-3-yl)ethynyl)-4-(6-(6-((6-methoxypyridin-3-yl)methyl)-3,6-diazabicyclo[3.1.1]heptan-3-yl)pyridin-3-yl)pyrazolo[1,5-a]pyridine-3-carbonitrile], the IC50 at Ba/F3 KIF5B-RET cells stood at 23.9 nM; in series [2] it was 17.3 nM.

Regarding `COc1ncc(CN2C3CC2CN(c2ccc(-c4cc(C#CC5(O)COC5)cn5ncc(C#N)c45)cn2)C3)cc1F` [Embodiment 81, 4-(6-(6-((5-Fluoro-6-methoxypyridin-3-yl)methyl)-3,6-diazabicyclo[3.1.1]heptan-3-yl)pyridin-3-yl)-6-((3-hydroxyoxetan-3-yl)ethynyl)pyrazolo[1,5-a]pyridine-3-carbonitrile], the half-maximal inhibitory concentration (IC50) on Ba/F3 KIF5B-RET cells came out at 16.8 nM; in series [2], 13.8 nM.

Consider `COc1ccc(CN2C3CC2CN(c2ccc(-c4cc(OCC[S+](C)[O-])cn5ncc(C#N)c45)cn2)C3)cn1` (stereo not shown) [Embodiment 1, 4-(6-(6-((6-Methoxypyridin-3-yl)methyl)-3,6-diazabicyclo[3.1.1]heptan-3-yl)pyridin-3-yl)-6-(2-(methylsulfinyl)ethoxy)pyrazolo[1,5-a]pyridine-3-carbonitrile], for which the IC50 on Ba/F3 KIF5B-RET cells worked out at 24.6 nM; in series [2], 11.5 nM; at KDR kinase, 28 nM; at RET kinase, 0.47 nM. Also, the “Ratio (KDR/RET)” value on KDR kinase turned out to be 59.

Consider `COc1ncc(CN2C3CC2CN(c2ccc(-c4cc(OCC5CC(C)(O)C5)cn5ncc(C#N)c45)cn2)C3)cc1F` (stereo not drawn) [Embodiment 72, 4-(6-(6-((5-Fluoro-6-methoxypyridin-3-yl)methyl)-3,6-diazabicyclo[3.1.1]heptan-3-yl)pyridin-3-yl)-6-((cis-3-hydroxy-3-methylcyclobutyl)methoxy)pyrazolo[1,5-a]pyridine-3-carbonitrile], for which the 50% inhibitory concentration (IC50) is 8.59 nM at Ba/F3 KIF5B-RET cells, 13.9 nM in series [2], 7.4 nM against KDR kinase and 0.37 nM on RET kinase. For the same compound, the “Ratio (KDR/RET)” value on KDR kinase came to 20.

Regarding `COc1ccc(CN2C3CC2CN(c2ccc(-c4cc(OCC56CC(C(N)=O)(C5)C6)cn5ncc(C#N)c45)cn2)C3)cn1` [Embodiment 66, 3-(((3-Cyano-4-(6-(6-((6-methoxypyridin-3-yl)methyl)-3,6-diazabicyclo[3.1.1]heptan-3-yl)pyridin-3-yl)pyrazolo[1,5-a]pyridin-6-yl)oxy)methyl)bicyclo[1.1.1]pentane-1-carboxamide], the IC50 worked out at 14.8 nM at Ba/F3 KIF5B-RET cells, 5.18 nM in series [2], 3 nM on KDR kinase and 0.25 nM at RET kinase. Also, on KDR kinase, the “Ratio (KDR/RET)” value is recorded as 12.

Take `CC1(O)CN(c2cc(-c3ccc(N4CCC(C)(NC(=O)c5ncccc5Cl)CC4)nc3)c3c(C#N)cnn3c2)C1` [Embodiment 95, 3-Chloro-N-(1-(5-(3-cyano-6-(3-hydroxy-3-methylazetidin-1-yl)pyrazolo[1,5-a]pyridin-4-yl)pyridin-2-yl)-4-methylpiperidin-4-yl)picolinamide]: the 50% inhibitory concentration (IC50) at Ba/F3 KIF5B-RET cells came to 22.5 nM; in series [2] it was 15 nM; at KDR kinase, 24 nM; against RET kinase, 1 nM. The “Ratio (KDR/RET)” value at KDR kinase worked out at 24.

With `COc1ccc(CN2C3CC2CN(c2ccc(-c4cc(C#C[C@@H](C)O)cn5ncc(C#N)c45)cn2)C3)cn1` [Embodiment 22, 6-((R)-3-Hydroxybut-1-yn-1-yl)-4-(6-(6-((6-methoxypyridin-3-yl)methyl)-3,6-diazabicyclo[3.1.1]heptan-3-yl)pyridin-3-yl)pyrazolo[1,5-a]pyridine-3-carbonitrile], the IC50 at Ba/F3 KIF5B-RET cells turned out to be 16.9 nM; in series [2], 20.7 nM; against KDR kinase it was 24 nM; on RET kinase it was 0.32 nM. Moreover, the “Ratio (KDR/RET)” value at KDR kinase was 75.
